Data on twelve compounds can be found in PubChem BioAssay (NCI).

Structures are written as SMILES.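 Growth conditions: 96-well plates. Treatment: test compound, 48 hours, 5 concentrations. Analysis: linear interpolation between bracketing concentrations; unreached endpoints set to highest concentration. The concentration for 50% growth inhibition is given as GI50. TGI: concentration producing complete growth inhibition.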

Some test systems named below: SW-620 colon; SR leukemia; HOP-62 NSCLC; MDA-MB-231 breast; NCI-H522 lung; SF-539 CNS; RXF 393 renal; NCI-H460 lung; HOP-92 NSCLC; CAKI-1 renal.
Common to all, as to assay: NCI tumour cell line growth inhibition, 48 h

As to `C[C@H]1CNC(=O)c2cnn3ccc(nc23)N[C@H](C)c2cc(F)ccc2O1`, the GI50 with SW-620 colon is 517 nM; in the experiment with SR leukemia it was 50 nM; in the experiment on HOP-62 NSCLC, 1030 nM; in the experiment on MDA-MB-231 breast, 514 nM; in the experiment with NCI-H522 lung, 2430 nM; with SF-539 CNS it was 743 nM. Besides, the GI50 with RXF 393 renal is 282 nM; in the experiment with NCI-H460 lung, 946 nM; with HOP-92 NSCLC it was 184 nM; with CAKI-1 renal, 343 nM. The TGI is above 55.1 µM in the experiment with SW-620 colon; 19.2 µM in the experiment with SR leukemia; above 21.5 µM with HOP-62 NSCLC; 13 µM in the experiment on MDA-MB-231 breast; 24.4 µM with NCI-H522 lung; 3.79 µM with SF-539 CNS. Moreover, the TGI in the experiment with RXF 393 renal came to 1.26 µM; in the experiment on NCI-H460 lung, 25.1 µM; in the experiment with HOP-92 NSCLC, 0.998 µM; in the experiment on CAKI-1 renal, 1.59 µM.
Turning to `COC(=O)/C(C#N)=C(\N)C(Cl)(Cl)Cl`, the TGI with SW-620 colon came out at 1.84 µM; in the experiment on SR leukemia, 5.37 µM; with HOP-62 NSCLC, 39 µM; in the experiment on NCI-H522 lung it was 4.14 µM; in the experiment with RXF 393 renal, 3.77 µM; in the experiment on NCI-H460 lung, 16.1 µM. Also, the TGI worked out at 9.85 µM in the experiment on HOP-92 NSCLC and 17.5 µM in the experiment on CAKI-1 renal.
Regarding `Nc1nc(SCc2ccccc2Cl)cc(C(=O)O)n1`, the TGI in the experiment on SW-620 colon, in the experiment with SR leukemia, in the experiment with HOP-62 NSCLC, in the experiment with MDA-MB-231 breast, in the experiment on NCI-H522 lung and with RXF 393 renal was above 100 µM in each case. Also, the TGI in the experiment on NCI-H460 lung, in the experiment with HOP-92 NSCLC and with CAKI-1 renal was above 100 µM each time.
As to `Cc1ccc(S(=O)(=O)OC(COC(=O)c2ccccc2)C(OS(=O)(=O)c2ccc(C)cc2)C(OS(=O)(=O)c2ccc(C)cc2)C(COC(=O)c2ccccc2)OS(=O)(=O)c2ccc(C)cc2)cc1` (stereo unspecified), the TGI in the experiment with SW-620 colon, in the experiment with SR leukemia, in the experiment on HOP-62 NSCLC, in the experiment on NCI-H522 lung, in the experiment with SF-539 CNS and with RXF 393 renal was above 100 µM throughout. Moreover, the TGI in the experiment on NCI-H460 lung, in the experiment on HOP-92 NSCLC and in the experiment on CAKI-1 renal was above 100 µM throughout.
Regarding `O=C(Nc1ccc(F)cc1)Nc1ccc(Br)c(C(F)(F)F)c1`, the GI50 is 3220 nM in the experiment on SW-620 colon; 1880 nM in the experiment with SR leukemia; 2180 nM with MDA-MB-231 breast; 1560 nM in the experiment with NCI-H522 lung; 2580 nM with SF-539 CNS; 2660 nM in the experiment on RXF 393 renal. For the same compound, the GI50 was 2530 nM with NCI-H460 lung and 1630 nM in the experiment on HOP-92 NSCLC. For the same compound, the TGI in the experiment with SW-620 colon was 12.7 µM; in the experiment on SR leukemia, 6.49 µM; in the experiment on MDA-MB-231 breast, 5.33 µM; in the experiment with NCI-H522 lung it was 5.87 µM; in the experiment on SF-539 CNS, 8.43 µM; in the experiment with RXF 393 renal it was 8.28 µM. The TGI in the experiment with NCI-H460 lung worked out at 10.4 µM; in the experiment with HOP-92 NSCLC, 5.24 µM.
In the case of `C=C1C(=O)O[C@H]2[C@H]1CC/C(Cn1cc(-c3ccc(F)cc3)nn1)=C\CC[C@@]1(C)O[C@@H]21`, the GI50 with SW-620 colon is 423 nM; in the experiment on SR leukemia it was 251 nM; in the experiment on HOP-62 NSCLC it was 3040 nM; in the experiment on MDA-MB-231 breast, 1220 nM; in the experiment on SF-539 CNS it was 271 nM; in the experiment on RXF 393 renal, 874 nM. In addition, the GI50 with NCI-H460 lung was 3660 nM; in the experiment on HOP-92 NSCLC it was 349 nM; in the experiment on CAKI-1 renal it was 1030 nM. Also, the TGI turned out to be 1.54 µM in the experiment with SW-620 colon; 1.18 µM in the experiment on SR leukemia; 12.1 µM in the experiment with HOP-62 NSCLC; 2.65 µM in the experiment with MDA-MB-231 breast; 1.08 µM with SF-539 CNS; 2.13 µM in the experiment with RXF 393 renal. For the same compound, the TGI in the experiment on NCI-H460 lung is 14 µM; in the experiment on HOP-92 NSCLC, 1.12 µM; with CAKI-1 renal, 2.23 µM.
For the compound `Cc1cc(C)c(C(=O)O)c(SSc2cc(C)cc(C)c2C(=O)O)c1`, the TGI with SW-620 colon, with SR leukemia, in the experiment with HOP-62 NSCLC, with NCI-H522 lung, with SF-539 CNS and in the experiment on RXF 393 renal was above 100 µM each time. The TGI in the experiment on NCI-H460 lung, with HOP-92 NSCLC and in the experiment with CAKI-1 renal was above 100 µM throughout.
For `C=CCC1(C(=O)OC(C)(C)C)C(OC)=C(C(=O)OC(C)(C)C)C2C1C(C(=O)OC(C)(C)C)=C(OC)C2(CC=C)C(=O)OC(C)(C)C` (stereo unspecified), the TGI in the experiment on SW-620 colon, in the experiment on SR leukemia, with NCI-H522 lung, in the experiment with SF-539 CNS, in the experiment on RXF 393 renal and in the experiment on HOP-92 NSCLC was above 100 µM throughout.
Consider `CC1=NOC(=O)/C1=C/c1ccc([N+](=O)[O-])cc1`, for which the TGI in the experiment with SW-620 colon, in the experiment with SR leukemia, in the experiment on HOP-62 NSCLC, with NCI-H522 lung, in the experiment on SF-539 CNS and in the experiment on RXF 393 renal was above 100 µM throughout. Besides, the TGI in the experiment on NCI-H460 lung, with HOP-92 NSCLC and in the experiment on CAKI-1 renal was above 100 µM in each case.
As for `COC(=O)C(CC(=O)Nc1ccc(Cl)c(Cl)c1)C(=O)C(=O)Nc1ccc(Cl)c(Cl)c1` (stereo unspecified), the TGI with SW-620 colon, in the experiment with SR leukemia, in the experiment with HOP-62 NSCLC, in the experiment on NCI-H522 lung, in the experiment with SF-539 CNS and in the experiment with RXF 393 renal was above 100 µM throughout. The TGI in the experiment with NCI-H460 lung, in the experiment on HOP-92 NSCLC and with CAKI-1 renal was above 100 µM in each case.
On to `COc1ccc(C(=O)CC2=Nc3nnc(CCCCCCCc4nnc5n4C(=O)C(CC(=O)c4ccc(OC)cc4)=N5)n3C2=O)cc1`, for which the TGI in the experiment on SW-620 colon, in the experiment on SR leukemia, with HOP-62 NSCLC, in the experiment with NCI-H522 lung, in the experiment with SF-539 CNS and in the experiment with RXF 393 renal was above 100 µM each time. The TGI with NCI-H460 lung, in the experiment with HOP-92 NSCLC and in the experiment with CAKI-1 renal was above 100 µM in each case.
For `CCOC(=O)C(=CNC(=S)N=Nc1c(O)[nH]c2ccccc12)C(=O)OCC`, the TGI in the experiment on SW-620 colon, in the experiment with SR leukemia, with HOP-62 NSCLC, in the experiment on MDA-MB-231 breast, with SF-539 CNS and in the experiment on RXF 393 renal was above 100 µM throughout. For the same compound, the TGI in the experiment on NCI-H460 lung, with HOP-92 NSCLC and in the experiment with CAKI-1 renal was above 100 µM each time.
